Test results reported in PMC7956643, “Synthesis of Novel Pyrido[1,2-c]pyrimidine Derivatives with 6-Fluoro-3-(4-piperidynyl)-1,2-benzisoxazole Moiety as Potential SSRI and 5-HT1A Receptor Ligands” (International Journal of Molecular Sciences, 2021).
Marks after values point to notes of the source that are not given here.

Assays:
[1] = target: T1, 5-HT6 receptors (Homo sapiens, UniProt P50406); experiment: 5-HT6 radioligand binding assay; settings: [3H]-LSD; HEK293 cells, human receptor
T1 construct: expressed in transfected cells
T1 sequence (P50406 whole entry): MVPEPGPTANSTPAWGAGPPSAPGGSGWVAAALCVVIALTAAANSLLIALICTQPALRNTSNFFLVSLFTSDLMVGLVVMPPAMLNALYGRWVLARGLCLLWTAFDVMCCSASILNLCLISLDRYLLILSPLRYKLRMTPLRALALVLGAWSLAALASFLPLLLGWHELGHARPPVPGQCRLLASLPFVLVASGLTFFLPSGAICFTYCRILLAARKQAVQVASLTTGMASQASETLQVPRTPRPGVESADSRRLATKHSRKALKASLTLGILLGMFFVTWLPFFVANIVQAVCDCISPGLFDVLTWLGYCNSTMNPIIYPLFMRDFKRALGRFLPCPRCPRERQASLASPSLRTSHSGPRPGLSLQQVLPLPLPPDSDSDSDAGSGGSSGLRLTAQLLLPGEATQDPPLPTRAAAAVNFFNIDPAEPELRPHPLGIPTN
Protocol: (§1) In vitro radioligand binding assays for 5-HT2A, 5-HT6, 5-HT7 and D2 receptors were carried out using methods published by Zajdel et al.. For the assays, HEK293 cell cultures stably expressing the investigated human receptors were used. Cell pellets were thawed and homogenized in 20 vol of assay buffer using an Ultra Turrax tissue homogenizer, then centrifuged twice at 35000 g for 20 min at 4 °C, with incubation for 15 min at 37 °C in between. The composition of the assay buffers was as follows: for 5-HT2A receptors—50 mM Tris-HCl, 0.1 mM EDTA, 4 mM MgCl2 and 0.1% ascorbate; for 5-HT6 receptors—50 mM Tris-HCl, 0.5 mM EDTA, 4 mM MgCl2; for 5-HT7 receptors—50 mM Tris-HCl, 4 mM MgCl2, 10 µM pargyline and 0.1% ascorbate; for D2 receptors—50 mM Tris-HCl, 1 mM EDTA, 4 mM MgCl2, 120 mM NaCl, 5 mM KCl, 1.5 mM CaCl2 and 0.1% ascorbate. All assays were incubated in total volume of 200 mL in 96-well microtitre plates for 1 h at 37 °C, except for 5-HT2A receptors which were incubated at room temperature for 1.5 h. The process of equilibration was terminated by rapid filtration through Unifilter plates with a 96-well cell harvester, and radioactivity retained on the filters was quantified on a Microbeta plate reader (PerkinElmer, USA). For displacement studies, the assay samples contained as radioligands (PerkinElmer): 2 nM [^3H]-ketanserin (spec. act. 53.4 Ci/mmol) for 5-HT2A receptors; 2 nM [^3H]-LSD (spec. act. 83.6 Ci/mmol) for 5-HT6 receptors; 0.6 nM [^3H]-5-CT (spec. act. 39.2 Ci/mmol) for 5-HT7 receptors and [^3H]-raclopride (spec. act. 76.0 Ci/mmol) for D2 receptors. […] Each compound was tested in triplicate at 7–8 concentrations (10^-11-10^-4 M). The inhibition constants (Ki) were calculated from the Cheng–Prusoff equation [46]. Results were expressed as means of at least two separate experiments.

[2] = target: T2, 5-HT7 receptors (Homo sapiens, UniProt P34969); experiment: 5-HT7 radioligand binding assay; settings: [3H]-5-CT; HEK293 cells, human receptor
T2 construct: expressed in transfected cells
T2 sequence (P34969 whole entry): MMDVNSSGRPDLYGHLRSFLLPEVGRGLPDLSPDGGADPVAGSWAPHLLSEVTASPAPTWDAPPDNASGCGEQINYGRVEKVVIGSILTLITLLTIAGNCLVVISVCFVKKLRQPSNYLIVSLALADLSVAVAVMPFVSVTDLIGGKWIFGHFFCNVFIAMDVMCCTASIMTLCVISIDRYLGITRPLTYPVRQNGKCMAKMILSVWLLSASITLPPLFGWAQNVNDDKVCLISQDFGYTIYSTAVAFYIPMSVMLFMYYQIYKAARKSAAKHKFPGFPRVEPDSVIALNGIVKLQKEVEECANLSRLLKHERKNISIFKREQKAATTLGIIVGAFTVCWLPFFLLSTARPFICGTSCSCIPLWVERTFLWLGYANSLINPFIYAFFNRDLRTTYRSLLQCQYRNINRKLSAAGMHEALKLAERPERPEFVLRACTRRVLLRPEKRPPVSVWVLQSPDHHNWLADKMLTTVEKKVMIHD
Protocol: as §1

[3] = target: T3, D2 receptors (Homo sapiens, UniProt P14416); experiment: D2 radioligand binding assay; settings: [3H]-raclopride; HEK293 cells, human receptor
T3 construct: expressed in transfected cells
T3 sequence (P14416 whole entry): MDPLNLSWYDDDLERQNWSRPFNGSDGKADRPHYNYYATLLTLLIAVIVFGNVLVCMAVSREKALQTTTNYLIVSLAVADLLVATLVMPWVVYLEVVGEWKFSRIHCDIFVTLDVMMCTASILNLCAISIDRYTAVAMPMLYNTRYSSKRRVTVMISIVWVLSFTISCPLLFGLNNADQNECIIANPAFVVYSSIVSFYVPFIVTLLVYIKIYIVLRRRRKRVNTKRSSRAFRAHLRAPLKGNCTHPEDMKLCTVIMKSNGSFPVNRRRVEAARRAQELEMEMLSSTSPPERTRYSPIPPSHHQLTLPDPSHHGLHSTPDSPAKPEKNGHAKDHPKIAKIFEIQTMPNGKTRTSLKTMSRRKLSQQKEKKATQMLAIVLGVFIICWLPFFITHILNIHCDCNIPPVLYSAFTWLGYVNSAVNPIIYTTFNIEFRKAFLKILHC
Protocol: as §1

[4] = target: T4, 5-HT1A receptor (Mus musculus, UniProt Q64264); experiment: Body temperature in mice (induced hypothermia); assay type: in vivo, CD-1 mice; settings: mice
T4 construct: from tissue; host or cells: whole animal, male CD-1 mice
T4 sequence (Q64264 1-421): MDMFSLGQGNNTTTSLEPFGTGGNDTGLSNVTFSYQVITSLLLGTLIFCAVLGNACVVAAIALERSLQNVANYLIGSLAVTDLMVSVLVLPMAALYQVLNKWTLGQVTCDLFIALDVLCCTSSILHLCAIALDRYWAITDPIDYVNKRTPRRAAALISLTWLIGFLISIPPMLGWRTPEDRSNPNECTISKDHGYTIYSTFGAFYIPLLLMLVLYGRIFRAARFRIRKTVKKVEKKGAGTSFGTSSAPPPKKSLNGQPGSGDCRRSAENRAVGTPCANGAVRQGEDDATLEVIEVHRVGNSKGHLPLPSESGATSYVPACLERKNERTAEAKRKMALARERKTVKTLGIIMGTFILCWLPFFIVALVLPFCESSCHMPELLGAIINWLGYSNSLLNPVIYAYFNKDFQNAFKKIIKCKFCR
Protocol: (§2) The experiments were performed on male CD-1 mice (23–40 g). The animals were kept at room temperature (21 ± 2 °C) on a natural day-night cycle (March–October) and housed under standard laboratory conditions. They had free access to food and tap water before the experiment. Each experimental group consisted of 6–8 animals/dose. All the animals were used only once. 8-Hydroxy-2-(di-n-propylamino)tetralin hydro-bromide (8-OH-DPAT, Research Biochemical Inc.) was used as aqueous solution. […] Vehicle group was administered as 10% aqueous solution of dimethyl sulphoxide (DMSO). 8-OH-DPAT was injected subcutaneously (sc); 6a and 7g were given intraperitoneally (ip) in a volume of 10 mL/kg/mice. The obtained data were analyzed by Dunnett’s test (one drug administration) or by the Newman–Keuls test (two drugs administrations). Forced swim test: the obtained data was evaluated by one-way analysis of variance (ANOVA) followed by the Dunnett’s multiple comparisons test: p < 0.05 was considered significant.
(§3) The results were expressed as a change in body temperature (Δt) with respect to the basal body temperature, as measured at the beginning of the experiment.

[5] = target: T4, 5-HT1A receptor; experiment: Effect of WAY-100635 on the hypothermia induced by tested compounds; assay type: in vivo, CD-1 mice; settings: mice
Protocol: as §2, §3

[6] = target: T5, human 5-HT1A receptor (Homo sapiens, UniProt P08908); experiment: 5-HT1A radioligand binding assay; settings: [3H]-8-OH-DPAT 1 nM; membranes from CHO-K1 cells with human 5-HT1A receptor
T5 construct: purchased PerkinElmer; host or cells: CHO-K1 cells, stably transfected
T5 sequence (P08908 1-422): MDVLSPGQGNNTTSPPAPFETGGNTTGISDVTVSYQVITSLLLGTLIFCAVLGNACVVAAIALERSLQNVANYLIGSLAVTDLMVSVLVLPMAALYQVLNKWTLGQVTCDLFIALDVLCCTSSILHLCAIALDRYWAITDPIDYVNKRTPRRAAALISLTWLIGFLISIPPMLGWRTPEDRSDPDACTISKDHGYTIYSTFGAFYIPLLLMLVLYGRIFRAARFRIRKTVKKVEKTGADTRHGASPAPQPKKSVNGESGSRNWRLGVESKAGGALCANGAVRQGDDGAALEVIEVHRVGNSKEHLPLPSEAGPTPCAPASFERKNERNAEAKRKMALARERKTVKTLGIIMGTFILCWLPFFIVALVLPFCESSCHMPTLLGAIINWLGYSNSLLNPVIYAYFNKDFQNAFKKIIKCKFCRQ
Protocol: Radioligand binding was performed using membranes from CHO-K1 cells stably transfected with the human 5-HT1A receptor (PerkinElmer, Fremont, CA, USA). All assays were carried out in duplicate. Then, 50 µL working solution of the tested compounds, 50 µL [^3H]-8-OH-DPAT (final concentration 1 nM) and 150 µL diluted membranes (20 µg protein per well) prepared in assay buffer (50 mM Tris, pH 7.4, 10 mM MgSO4, 0.5 mM EDTA, 0.1% ascorbic acid) were transferred to a polypropylene 96-well microplate using 96-wells pipetting station Rainin Liquidator (MettlerToledo, Columbus, OH, USA). […] The reaction was terminated by rapid filtration through GF/B filter mate, presoaked with 0.5% polyethyleneimine for 30 min. Ten rapid washes with 200 µL 50 mM Tris buffer (4 °C, pH 7.4) were performed using an automated harvester system—Harvester-96 MACH III FM (Tomtec, Hamden, CT, USA). […] Data were fitted to a one-site curve-fitting equation with Prism 6 (GraphPad Software, San Diego, CA, USA) and Ki values were estimated from the Cheng–Prusoff equation.

[7] = target: T6, SERT protein (Rattus norvegicus, UniProt P31652); experiment: SERT radioligand binding assay; settings: [3H]-citalopram 1.0 nM; rat cortex tissue
T6 construct: from tissue; host or cells: rat cortex
T6 sequence (P31652 whole entry): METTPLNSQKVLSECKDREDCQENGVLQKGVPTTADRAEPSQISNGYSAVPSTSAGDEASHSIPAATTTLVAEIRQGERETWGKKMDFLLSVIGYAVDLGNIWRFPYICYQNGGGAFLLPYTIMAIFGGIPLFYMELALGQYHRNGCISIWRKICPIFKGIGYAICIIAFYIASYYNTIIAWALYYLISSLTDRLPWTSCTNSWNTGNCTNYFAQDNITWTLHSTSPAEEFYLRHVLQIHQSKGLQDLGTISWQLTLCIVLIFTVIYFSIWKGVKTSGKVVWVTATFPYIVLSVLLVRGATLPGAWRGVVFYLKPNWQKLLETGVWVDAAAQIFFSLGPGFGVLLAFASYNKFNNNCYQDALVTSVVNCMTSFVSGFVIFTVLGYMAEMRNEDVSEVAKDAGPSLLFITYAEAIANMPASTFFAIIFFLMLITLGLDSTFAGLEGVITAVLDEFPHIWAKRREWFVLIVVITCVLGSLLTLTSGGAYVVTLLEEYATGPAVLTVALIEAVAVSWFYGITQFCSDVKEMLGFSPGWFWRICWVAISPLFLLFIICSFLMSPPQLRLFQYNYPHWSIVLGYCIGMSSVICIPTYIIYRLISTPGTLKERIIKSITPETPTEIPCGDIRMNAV
Protocol: Radioligand binding was performed using rat cortex tissue. All assays were carried out in duplicate. First, 50 µL working solution of the tested compounds, 50 µL [^3H]-citalopram (final concentration 1.0 nM) and 150 µL tissue suspension, prepared in assay buffer (50 mM Tris. pH 7.7; 150 mM NaCl; 5 mM KCl), were transferred to a polypropylene 96-well microplate using 96-wells pipetting station Rainin Liquidator (MettlerToledo). […] The reaction was terminated by rapid filtration through GF/B filter mate presoaked with 0.3% polyethyleneimine for 30 min. Ten rapid washes with 200 µL 50 mM Tris buffer (4 °C, pH 7.7) were performed using an automated harvester system—Harvester-96 MACH III FM (Tomtec). […] Data were fitted to a one-site curve-fitting equation with Prism 6 (GraphPad Software) and Ki values were estimated from the Cheng–Prusoff equation.

[8] = target: T7, 5-HT2A receptors (Homo sapiens, UniProt P28223); experiment: 5-HT2A radioligand binding assay; settings: [3H]-ketanserin; HEK293 cells, human receptor
T7 construct: expressed in transfected cells
T7 sequence (P28223 whole entry): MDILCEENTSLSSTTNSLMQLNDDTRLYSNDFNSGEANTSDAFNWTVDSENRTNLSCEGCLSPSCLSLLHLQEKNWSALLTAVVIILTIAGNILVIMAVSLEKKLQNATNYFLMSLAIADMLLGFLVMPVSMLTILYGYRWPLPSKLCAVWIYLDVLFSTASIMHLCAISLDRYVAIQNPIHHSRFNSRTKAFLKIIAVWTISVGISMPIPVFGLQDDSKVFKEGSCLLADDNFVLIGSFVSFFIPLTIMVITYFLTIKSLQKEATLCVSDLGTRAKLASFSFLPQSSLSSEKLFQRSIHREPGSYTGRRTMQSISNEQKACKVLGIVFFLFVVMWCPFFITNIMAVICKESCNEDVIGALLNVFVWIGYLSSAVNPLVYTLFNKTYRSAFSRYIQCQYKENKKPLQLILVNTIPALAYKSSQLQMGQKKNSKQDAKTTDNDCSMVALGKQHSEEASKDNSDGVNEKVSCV
Protocol: as §1, with “All assays were incubated in total volume of 200 mL in 96-well microtitre plates for 1 h at 37 °C, except for 5-HT2A receptors which were incubated at room temperature for 1.5 h.” left out

Work on `COc1ccc(-c2c3n(c(=O)n(CCCCN4CCC(c5noc6cc(F)ccc56)CC4)c2=O)CCCC3)cc1` [Compound 7g, 4-(4-Methoxyphenyl)-2-{4-[4-(6-fluoro-1,2-benzoxazol)-1-piperidyl]butyl}-5,6,7,8-tetrahydro-pyrido[1,2-c]pyrimidine-1,3-dione] yielded a Ki [1] of 400 ± 32 nM, a Ki [2] of 94 ± 11 nM and a Ki [3] of 10 ± 1 nM. The “Induction of hypothermia in mice” value [4] was “induced hypothermia”, the “Δt ± SEM, body temperature” value ([4]; 1.25 mg/kg ip, 30 min) was −1.5 ± 0.3 ^b °C and the “Δt ± SEM, body temperature” value ([4]; 1.25 mg/kg ip, 60 min) was −1.7 ± 0.3 ^b °C. For the same compound, the “Δt ± SEM, body temperature” value ([4]; 1.25 mg/kg ip, 90 min) was −1.3 ± 0.4 ^b °C, the “Δt ± SEM, body temperature” value ([4]; 1.25 mg/kg ip, 120 min) was −1.0 ± 0.3 °C and the “Δt ± SEM, body temperature” value ([4]; 2.5 mg/kg ip, 30 min) was −2.2 ± 0.2 ^b °C. For the same compound, the “Δt ± SEM, body temperature” value ([4]; 2.5 mg/kg ip, 60 min) was −2.8 ± 0.3 ^b °C, the “Δt ± SEM, body temperature” value ([4]; 2.5 mg/kg ip, 90 min) was −2.9 ± 0.3 ^b °C and the “Δt ± SEM, body temperature” value ([4]; 2.5 mg/kg ip, 120 min) was −3.0 ± 0.4 ^b °C. For the same compound, the “Δt ± SEM, body temperature” value ([4]; 5 mg/kg ip, 30 min) was −2.1 ± 0.1 ^b °C, the “Δt ± SEM, body temperature” value ([4]; 5 mg/kg ip, 60 min) was −3.4 ± 0.3 ^b °C and the “Δt ± SEM, body temperature” value ([4]; 5 mg/kg ip, 90 min) was −3.9 ± 0.5 ^b °C. The “Δt ± SEM, body temperature” value ([4]; 5 mg/kg ip, 120 min) was −4.2 ± 0.8 ^b °C, the “Δt ± SEM, body temperature” value ([5]; WAY-100635 0.1 mg/kg sc 15 min before compound 1.25 mg/kg, 30 min) was −1.2 ± 0.2 ^b °C and the “Δt ± SEM, body temperature” value ([5]; WAY-100635 0.1 mg/kg sc 15 min before compound 1.25 mg/kg, 60 min) was −0.7 ± 0.3 ^d °C. For the same compound, the “Δt ± SEM, body temperature” value ([5]; vehicle + compound 1.25 mg/kg, 30 min) was −1.5 ± 0.3 ^c °C, the “Δt ± SEM, body temperature” value ([5]; vehicle + compound 1.25 mg/kg, 60 min) was −1.7 ± 0.3 ^c °C and the melting point was 108 to 109 °C.

In the case of `COc1ccc(-c2c3n(c(=O)n(CCCCN4CCC(c5noc6cc(F)ccc56)CC4)c2=O)CCCC3)cc1` [Compound 7g], the Ki [6] is reported as 5 ± 0.5 nM, the Ki [7] is reported as 48 ± 2.4 nM and the Ki [8] is reported as 16 ± 2 nM.

Compound `O=c1c(-c2ccc(F)cc2)c2n(c(=O)n1CCCCN1CCC(c3noc4cc(F)ccc34)CC1)CCCC2` [Compound 7i, 4-(4-Fluorophenyl)-2-{4-[4-(6-fluoro-1,2-benzoxazol)-1-piperidyl]butyl}-5,6,7,8-tetrahydro-pyrido[1,2-c]pyrimidine-1,3-dione] has a Ki [6] of 9.5 ± 1.1 nM, a Ki [7] of 311 ± 35 nM and a Ki [8] of 44 ± 6 nM. For the same compound, the Ki [1] was 740 ± 183 nM, the Ki [2] was 161 ± 27 nM and the Ki [3] was 17 ± 2 nM. The melting point was 57 to 60 °C.
